Where “and” joins values, the source holds several entries; their conditions need not be identical. Equal entries are not always repeated.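 Dose response: 5 concentrations. Exposure: 48 h. Format: 96-well plates. Endpoint: linear interpolation; highest concentration if not reached. At the GI50, growth is halved. The concentration for full growth arrest is given as TGI.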
Legend:
Assay in all cases: DTP human tumour cell line panel, 48 h
SW-620 colon = test system: SW-620 colon
SNB-19 CNS = test system: SNB-19 CNS
RPMI-8226 leukemia = test system: RPMI-8226 leukemia
HT29 colon = test system: HT29 colon
TK-10 renal = test system: TK-10 renal
SF-268 CNS = test system: SF-268 CNS
EKVX NSCLC = test system: EKVX NSCLC
UACC-62 melanoma = test system: UACC-62 melanoma

Row | Structure (SMILES) | TGI (SW-620 colon) | TGI (SNB-19 CNS) [µM] | GI50 (RPMI-8226 leukemia) [µM] | TGI (RPMI-8226 leukemia) | TGI (HT29 colon) [µM] | GI50 (TK-10 renal) | TGI (TK-10 renal) [µM] | TGI (SF-268 CNS) [µM] | GI50 (EKVX NSCLC) [µM] | TGI (EKVX NSCLC) | GI50 (UACC-62 melanoma) [µM] | GI50 (SW-620 colon) [µM] | GI50 (SNB-19 CNS) [µM] | GI50 (HT29 colon) | GI50 (SF-268 CNS) [µM] | TGI (UACC-62 melanoma)
1 | COc1cc2c3c(n(CCCOC(=O)C(F)(F)F)c(=O)c2cc1OC)-c1cc2c(cc1C3=O)OCO2 | > 100 µM | > 100 | < 0.01 | 0.0158 µM | > 35.1 | 0.135 µM | > 100 | > 32.2 | 0.612 | > 63.8 µM | < 0.01 | – | – | – | – | –
2 | Cc1[nH]c(/C=C2\C(=O)Nc3ccccc32)c(C)c1CCC(=O)O | 52.8 µM and 71.1 µM | > 100 | – | 65 µM and 75.3 µM | > 80.8 | 35 µM | > 100 | > 100 | 20.9 | 89.9 µM and 97.4 µM | 17.7 | 18.8 | 20.9 | 27 µM | 25.1 | 58.1 µM and 95.6 µM
3 | CN1C(=O)/C(=C/c2c(Cl)n(C)c3ccccc23)c2ccccc21 | – | – | 1.53 | 3.94 µM | 17.8 | 9.52 µM and 1.38 µM | 2.67 | – | 2.11 | 6.03 µM | 2.8 | 5.07 | 6.84 | 4.37 µM and 5.57 µM | 9.2 | –
4 | CCCOc1ccc2sc(NC(=O)OC)nc2c1 | > 100 µM | > 100 | 2.65 | > 100 µM | > 100 | > 24.5 µM | > 100 | > 100 | – | – | 3.64 | 0.544 | 10.2 | 0.465 µM | > 100 | > 100 µM
5 | CSc1ccc2c(c1)C(=O)c1c-2n(CCCBr)c(=O)c2cc([N+](=O)[O-])ccc12 | > 100 µM | > 100 | 4.11 | > 100 µM | > 100 | > 100 µM | > 100 | > 100 | > 100 | > 100 µM | 3.1 | 4.04 | 3.78 | 28.2 µM | 7.42 | > 100 µM
6 | Cn1cc(C2=C(c3cccc(Br)c3)C(=O)NC2=O)c2ccccc21 | > 25 µM | > 25 | 20.1 | > 25 µM | > 25 | > 18.6 µM | > 25 | > 25 | – | – | 11.3 | 9.44 | > 25 | > 15 µM | 15.5 | > 25 µM
7 | O=C1NC(=NCCc2cccc(Cl)c2)S/C1=C\c1ccc2ncccc2c1 | – | > 25 | > 25 | > 25 µM | > 25 | > 25 µM | > 25 | > 25 | – | – | > 25 | – | > 25 | > 25 µM | > 25 | > 25 µM
8 | Cc1cc(C)c(/C=C2\C(=O)Nc3ccc(NC(=O)CCCCCCC(=O)NO)cc32)[nH]1 | 36.2 µM | > 100 | > 100 | > 100 µM | > 100 | 3.1 µM | > 100 | > 100 | – | – | 0.407 | 0.317 | 0.93 | 0.859 µM | 1.62 | 2.75 µM
9 | COc1ccc(-n2c(C)cc(-c3ccccc3)c2C)cc1 | 12.5 µM | > 100 | 1.49 | 5.02 µM | 7.23 | 3.28 µM | 16.5 | 33.3 | – | – | 2.01 | 2.14 | 8.41 | 1.89 µM | 4.46 | 12.8 µM
10 | COc1ncc(-c2ccc3ncnc(Nc4cccc(Cl)c4)c3c2)cc1NS(=O)(=O)C1CC1 | > 100 µM | > 100 | > 100 | > 100 µM | – | – | – | > 100 | – | – | – | > 100 | 3.92 | – | 1.54 | –
11 | CCn1c(=O)c2c(=O)c3c4c(oc3oc2c2ccccc21)C(=O)c1ccccc1C4=O | > 100 µM | > 100 | 2.91 | > 100 µM | – | > 71.5 µM | > 100 | > 100 | 1.47 | > 100 µM | > 25 | > 100 | > 57.7 | – | > 71 | > 100 µM
12 | COc1ccc(CCNC(=O)c2ccc(NC3=C(Cl)C(=O)N(Cc4ccccc4)C3=O)cc2)cc1OC | – | > 100 | 2.27 | 6.5 µM | > 100 | 11.5 µM | 70.9 | > 100 | 24.9 | > 100 µM | 11.8 | – | 27.5 | 7.88 µM | 26.2 | 74.8 µM
13 | CCN(Cc1ccccc1C)c1ccc(CO)c(Cl)c1 | 18.5 µM | 52.8 | 4.04 | 23.5 µM | 26.3 | 0.0944 µM | 0.863 | 31.8 | – | – | 0.423 | 3.74 | 17.8 | 9.97 µM | 16.1 | 6.27 µM
14 | O=C(CSC1CCc2ccccc21)N/N=C/c1ccccc1O (stereo not drawn) | 81.4 µM | > 100 | 7.47 | 38.4 µM | 52.6 | 6.1 µM | 73.8 | > 100 | – | – | 2.82 | 5.66 | 6.11 | 18.3 µM | 3.33 | 13.6 µM
15 | COc1ccc(-c2ccc(-c3ccc(C(=N)N)s3)s2)cc1 | 0.353 µM | 1.41 | 0.221 | 0.469 µM | 0.375 | 0.175 µM | 0.337 | 0.451 | – | – | 0.188 | 0.18 | 0.31 | 0.181 µM | 0.211 | 0.357 µM
16 | CCOC(=O)c1c(NC(=O)c2cccc(C(F)(F)F)c2)sc2c(CN(C)C)c(O)ccc12 | 5.53 µM | 22.8 | – | – | 5.05 | 4.25 µM | 15.8 | 24.1 | 15.2 | 36.1 µM | 1.71 | 2.31 | 10.6 | 2.21 µM | 4.69 | 3.17 µM
17 | COc1cc(OC)c(/C=C/c2c3ccccc3cc[n+]2C)c(OC)c1 | 14.2 µM | 25 | 0.377 | 6.92 µM | 10.3 | 3.27 µM | 23.1 | 19.3 | – | – | 1.51 | 2.12 | 1.88 | 1.64 µM | 2.54 | 9.58 µM

Reference: PubChem BioAssay (NCI)
